Patent US8580968B2, “Benzothiazole and benzooxazole derivatives and methods of use” (AbbVie Inc., priority 2007, dated 2013)

Legend:
[1] = test system: adult osteoarthritic rats; experiment: osteoarthritis model (MIA-induced knee joint osteoarthritis, hind limb grip force); type: in vivo, rat; settings: intraperitoneal injection; for effect on hind limb grip force: p<0.01, 20 days after MIA
Method: Unilateral knee joint osteoarthritis was induced in rats by a single intra-articular (i.a.) injection of sodium monoiodoacetate (MIA) (Sigma-Aldrich, St. Louis, Mo.) (3 mg in 50 μl sterile isotonic saline) into the right knee joint cavity under light (1-3%) isoflurane anesthesia.
Pain behavior was assessed by measurement of hind limb grip force (GF) in adult osteoarthritic rats. Following the unilateral injection of MIA (male Sprague Dawley, 325-350 g, tested at 20 days following MIA injection), a behavioral measure of activity-induced pain was carried out. Measurements of the peak hind limb grip force were conducted by recording the maximum compressive force (CFmax), in grams of force, exerted on a hind limb strain gauge setup, in a commercially available grip force measurement system (Columbus Instruments, Columbus, Ohio).
During testing, each rat was gently restrained by grasping it around its rib cage and then allowed to grasp the wire mesh frame attached to the strain gauge. The experimenter then moved the animal in a rostral-to-caudal direction until the grip was broken. Each rat was sequentially tested twice at approximately 2-3 min interval to obtain a raw mean grip force (CFmax). This raw mean grip force data was in turn converted to a maximum hindlimb cumulative compressive force (CFmax), as the grams of force/kg of body weight, for each animal.
For evaluating the compound effects, the hind limb grip force was conducted 20 days following the intra-articular injection of MIA. A group of age-matched naïve (not injected with MIA) animals was added as a comparator to the drug-dosed groups. The vehicle control response for each group of MIA-treated animals was defined as the 0% response (0% effect), whereas the naïve control group was defined as the normal response and as 100% effect. The % effects for each dose group was expressed as % return of response to normalcy, compared to the naïve group. That is, the % effect=(Treatment CFmax−Vehicle CFmax)/Vehicle CFmax]×100). All experiments evaluating drug effects in this model were conducted in a randomized blinded fashion. […]

mice = experiment: single trial 24-hour inhibitory avoidance model (memory); type: in vivo, mouse; settings: 0.03 mg/kg, intraperitoneal injection, p<0.01 versus vehicle injected control mice
Source text: The ability of compounds to treat diseases with deficits in memory and cognition such as Alzheimer's disease, dementia, age-related cognitive impairment, schizophrenia, and cognitive deficits of schizophrenia can be assessed in animal models. One model assessing the capability of a compound to enhance memory is the single trial 24-hour inhibitory avoidance model, described in Tietje et al. (Tietje, K. R., et al. “Preclinical Characterization of A-582941: A Novel α7 Neuronal Nicotinic Receptor Agonist with Broad Spectrum Cognition-Enhancing Properties” CNS Neuroscience and Therapeutics 2008 v14 pp. 65-82). In this mouse model, at a dose of 0.03 mg/kg, administered by intraperitoneal injection, the compound of Example 20 ((R)-2-(2-(3-(piperidin-1-yl)pyrrolidin-1-yl)benzo[d]thiazol-6-yl)pyridazin-3(2H)-one) achieved full efficacy, (p<0.01 versus vehicle injected control mice).

Male Sprague Dawley rats = experiment: analgesic effect against neuropathic pain (L5/L6 spinal nerve ligation, von Frey mechanical allodynia); type: in vivo, rat; settings: intraperitoneal injection
Method: Animals were prepared for testing, by use of a surgical procedure that induces neuropathic pain in one paw. Male Sprague Dawley rats were purchased from Charles River (Portage, Mich.). Prior to surgery, animals were housed in groups and maintained in a temperature-regulated environment. Following nerve ligation surgery, animals were housed in groups, and had access to food and water ad libitum.
The L5 and L6 spinal nerves of anesthetized rats were tightly ligated in a manner described previously (see Kim and Chung, Pain (1992) vol. 50 pp. 355-363). An incision was made on the dorsal portion of the hip and the muscle was blunt-dissected to reveal the spinal processes. […] The paw affected by the surgical procedure (the left paw) develops an allodynic response, a hypersensitivity to mechanical and other stimuli; neuropathic pain is assessed as an increased sensitivity in the surgically affected (left) allodynic paw compared to the control paw on the right side, and measured by comparing the response of the (left side) allodynic paw to the response of the unaffected right side control paw.
For the assessment of neuropathic pain, mechanical allodynia in the affected paw of animals that had undergone spinal nerve ligation was evaluated using testing with von Frey filaments. […]

O=c1cccnn1-c1ccc2nc(N3CC[C@@H](N4CCCCC4)C3)sc2c1 [Example 20, (R)-2-(2-(3-(piperidin-1-yl)pyrrolidin-1-yl)benzo[d]thiazol-6-yl)pyridazin-3(2H)-one]
effect on hind limb grip force ([1]; 1 mg/kg): 49% | effect on hind limb grip force ([1]; 3 mg/kg): 69% | adverse effects ([1]; osteoarthritis model): No complicating adverse effects were observed | efficacy in inhibitory avoidance (memory enhancement) (mice): full efficacy | reduction in mechanical allodynia (Male Sprague Dawley rats; 3 mg/kg, p<0.01): 40% | adverse effects (Male Sprague Dawley rats; neuropathic pain model): No complicating adverse effects were observed
